Some test systems named below: CAKI-1 renal; OVCAR-3 ovarian; SK-MEL-2 melanoma; SK-OV-3 ovarian; CCRF-CEM leukemia; HOP-62 NSCLC; NCI-H23 lung; SR leukemia; HOP-92 NSCLC; MCF7 breast.
Experiment in all cases: inhibition of tumour cell growth, NCI panel, 48 h

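Interpolation was linear, between the two tested concentrations surrounding the appropriate level; five concentrations were tested over 48 hours in 96-well plates. Here, GI50 denotes the concentration required for 50% inhibition of growth. TGI is the concentration that stops growth completely.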

On to `O=C(c1ccc(Cl)cc1)c1ccc(OCCCOc2ccc(C(=O)c3ccc(Cl)cc3)cc2Cl)c(Cl)c1`, for which the TGI in the assay with CAKI-1 renal, in the assay with OVCAR-3 ovarian, in the assay on SK-MEL-2 melanoma, with SK-OV-3 ovarian, with CCRF-CEM leukemia and with HOP-62 NSCLC was more than 100 µM in each case. Besides, the TGI in the assay on NCI-H23 lung, in the assay on SR leukemia and in the assay on HOP-92 NSCLC was more than 100 µM in each case.
On to `CO[C@H]1CC(O[C@@H]2/C(C)=C/C[C@@H]3C[C@@H](C[C@]4(CC[C@H](C)[C@@H](C5CCCCC5)O4)O3)OC(=O)[C@@H]3C=C(C)/C(=N/O)[C@H]4OC/C(=C\C=C\[C@@H]2C)[C@]43O)O[C@@H](C)C1O` (stereo partly drawn), for which the GI50 is 1.14 µM in the assay on CAKI-1 renal; 0.864 µM in the assay on OVCAR-3 ovarian; 1.18 µM with SK-MEL-2 melanoma; 1.17 µM in the assay with SK-OV-3 ovarian; 0.972 µM in the assay with MCF7 breast; 0.887 µM with HOP-62 NSCLC. Besides, the GI50 in the assay on NCI-H23 lung is 1.01 µM; with SR leukemia it was 1.11 µM; in the assay with HOP-92 NSCLC, 0.648 µM. In addition, the TGI worked out at 3.32 µM in the assay on CAKI-1 renal; 1.62 µM with OVCAR-3 ovarian; 2.68 µM in the assay with SK-MEL-2 melanoma; 2.86 µM with SK-OV-3 ovarian; 2.46 µM in the assay on MCF7 breast; 1.73 µM with HOP-62 NSCLC. The TGI is 2.65 µM in the assay with NCI-H23 lung, 2.79 µM in the assay with SR leukemia and 1.57 µM in the assay with HOP-92 NSCLC.
With `CCOC(=O)C(C#N)C1=CC(=O)C(=O)c2ccc(O)cc21` (stereo not drawn), the TGI with CAKI-1 renal, with OVCAR-3 ovarian, with SK-MEL-2 melanoma, in the assay on SK-OV-3 ovarian, in the assay on MCF7 breast and with CCRF-CEM leukemia was more than 100 µM each time. In addition, the results for the TGI in the assay with HOP-62 NSCLC, with NCI-H23 lung and in the assay with SR leukemia were more than 100 µM, 58 µM and more than 100 µM, respectively.
In the case of `c1ccc(CNCCN(CCNCc2ccccn2)Cc2ccc3ccccc3c2)nc1`, the GI50 in the assay on OVCAR-3 ovarian was 1.83 µM; in the assay with SK-OV-3 ovarian it was 1.94 µM; in the assay with MCF7 breast it was 2.86 µM; in the assay on CCRF-CEM leukemia, 3.08 µM; in the assay with HOP-62 NSCLC, 2.17 µM; in the assay on NCI-H23 lung it was 2.26 µM. Besides, the GI50 in the assay on SR leukemia is 2.88 µM; in the assay on HOP-92 NSCLC it was 1.79 µM. Also, the TGI was found to be 3.74 µM in the assay with OVCAR-3 ovarian; 5.11 µM in the assay with SK-OV-3 ovarian; 10.5 µM with MCF7 breast; 10.3 µM in the assay on CCRF-CEM leukemia; 6.69 µM with HOP-62 NSCLC; 6.19 µM in the assay on NCI-H23 lung. Also, the TGI in the assay with SR leukemia worked out at 7.83 µM; in the assay with HOP-92 NSCLC, 4.64 µM.
As for `Oc1c(Cl)cc(Cl)c2ccc(Cn3cc(-c4ccc(C(F)(F)F)cc4)nn3)nc12`, the GI50 in the assay on CAKI-1 renal was 1.25 µM; with OVCAR-3 ovarian, 1.33 µM; in the assay with SK-MEL-2 melanoma, 2.67 µM; in the assay on SK-OV-3 ovarian, 17.7 µM; with CCRF-CEM leukemia, 0.357 µM; in the assay on HOP-62 NSCLC, 16.4 µM. In addition, the results for the GI50 in the assay with NCI-H23 lung, in the assay with SR leukemia and in the assay on HOP-92 NSCLC were 2.04 µM, 0.651 µM and 1.9 µM, respectively. The TGI in the assay on CAKI-1 renal was 2.97 µM; with OVCAR-3 ovarian, 2.74 µM; in the assay on SK-MEL-2 melanoma, 7.65 µM; with SK-OV-3 ovarian, 33 µM; in the assay on CCRF-CEM leukemia, more than 100 µM; in the assay on HOP-62 NSCLC, 35.2 µM. Besides, the TGI was 4.76 µM in the assay on NCI-H23 lung, more than 100 µM with SR leukemia and 5.82 µM in the assay with HOP-92 NSCLC.
For the compound `Cc1nc2c(o1)C(=Nc1ccccc1)c1nc(C)oc1C2=Nc1ccccc1`, the TGI is more than 100 µM with OVCAR-3 ovarian; 72.6 µM with SK-MEL-2 melanoma; 40.4 µM with SK-OV-3 ovarian; more than 100 µM in the assay on CCRF-CEM leukemia; 36.3 µM with HOP-62 NSCLC; 63.7 µM in the assay on NCI-H23 lung. The values for the TGI in the assay on SR leukemia and in the assay with HOP-92 NSCLC were more than 100 µM and 44.1 µM, respectively.
For `COc1ccc(OC)c(/C=N/N=C(\N)NO)c1`, the TGI in the assay on CAKI-1 renal is 71.4 µM; in the assay on OVCAR-3 ovarian, more than 100 µM; in the assay with SK-MEL-2 melanoma, more than 100 µM; with SK-OV-3 ovarian, more than 100 µM; with CCRF-CEM leukemia, more than 100 µM; in the assay on HOP-62 NSCLC, more than 100 µM. In addition, the figures for the TGI in the assay on NCI-H23 lung, with SR leukemia and in the assay with HOP-92 NSCLC were more than 100 µM, more than 100 µM and 83.6 µM, respectively.
For `Cc1cn(Cc2ccc(C34CC5CC(CC(C5)C3)C4)c(O)c2)c(=O)[nH]c1=O`, the GI50 was 10.1 µM in the assay with CAKI-1 renal; 4.04 µM in the assay with OVCAR-3 ovarian; 14.1 µM in the assay with SK-MEL-2 melanoma; 19.2 µM in the assay on SK-OV-3 ovarian; 7.96 µM with MCF7 breast; 12.9 µM in the assay with HOP-62 NSCLC. Besides, the GI50 with NCI-H23 lung was 8.11 µM; with SR leukemia, 3.16 µM; with HOP-92 NSCLC it was 14.4 µM. Moreover, the TGI was 23.3 µM with CAKI-1 renal; 16.3 µM in the assay with OVCAR-3 ovarian; 32.2 µM in the assay on SK-MEL-2 melanoma; 44.3 µM in the assay on SK-OV-3 ovarian; 72.9 µM in the assay with MCF7 breast; 25.6 µM in the assay with HOP-62 NSCLC. The TGI amounted to 20.7 µM in the assay with NCI-H23 lung, 13.5 µM with SR leukemia and 29.5 µM in the assay with HOP-92 NSCLC.
With `CC(=O)C1=C(O)C=C2Oc3c(C(=O)/C=C/c4cc(Cl)cc(Cl)c4)c(O)c(C)c(O)c3[C@]2(C)C1=O`, the GI50 with CAKI-1 renal was 0.502 µM; in the assay on OVCAR-3 ovarian, 0.417 µM; in the assay on SK-MEL-2 melanoma, 0.365 µM; with SK-OV-3 ovarian, 0.449 µM; with MCF7 breast, 0.458 µM; with CCRF-CEM leukemia, 0.498 µM. The GI50 with HOP-62 NSCLC was 0.48 µM; in the assay on NCI-H23 lung, 0.5 µM; with SR leukemia, 0.459 µM. Besides, the TGI was determined as 4.19 µM with CAKI-1 renal; 1.23 µM with OVCAR-3 ovarian; 0.924 µM in the assay on SK-MEL-2 melanoma; 1.33 µM in the assay with SK-OV-3 ovarian; 1.72 µM in the assay with MCF7 breast; 2.65 µM in the assay with CCRF-CEM leukemia. For the same compound, the TGI in the assay with HOP-62 NSCLC came out at 1.67 µM; in the assay on NCI-H23 lung, 2.05 µM; in the assay on SR leukemia, 4.35 µM.

These data come from PubChem BioAssay (NCI).
